The record followed here is patent US10759751B2, “Substituted spirocyclohexanes as muscarinic M1 receptor and/or M4 receptor agonists” (Heptares Therapeutics Limited, priority 2016, dated 2020).

Assay type in all cases: cell-based
For assay [1], the target named is T1, human muscarinic M1 receptor (Homo sapiens, UniProt P11229).
T1 sequence (P11229 1-460): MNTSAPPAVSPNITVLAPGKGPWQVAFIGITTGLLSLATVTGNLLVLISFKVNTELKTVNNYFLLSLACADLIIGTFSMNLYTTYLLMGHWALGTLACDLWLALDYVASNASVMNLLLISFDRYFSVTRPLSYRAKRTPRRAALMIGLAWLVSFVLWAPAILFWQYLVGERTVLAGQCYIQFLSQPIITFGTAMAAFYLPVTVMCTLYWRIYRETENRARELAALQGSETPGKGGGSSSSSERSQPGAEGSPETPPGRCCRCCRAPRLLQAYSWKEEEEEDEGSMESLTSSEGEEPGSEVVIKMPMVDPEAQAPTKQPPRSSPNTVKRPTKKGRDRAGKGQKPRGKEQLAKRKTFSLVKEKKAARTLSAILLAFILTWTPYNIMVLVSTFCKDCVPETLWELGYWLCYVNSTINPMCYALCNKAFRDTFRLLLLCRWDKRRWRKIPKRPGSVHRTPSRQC
Briefly: Alphascreen Surefire phospho-ERK1/2 functional assay, M1. The conditions noted are these: for EC50: CHO cells stably expressing human M1, phospho-ERK1/2, read-out: pEC50 M1 (converted); for Emax: CHO, read-out: M1 % Emax cf. ACh, CHO cells stably expressing human M1, Emax relative to ACh. The gist of the method: (§1)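 Read-out: AlphaScreen SureFire signal for phospho-ERK1/2 in lysates of stably transfected CHO cells, read after 2 h in the dark. Cells were serum-starved overnight and given agonist for 5 min at 37 °C. Values are pEC50 and Emax.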

In assay [2] the target is T2, human muscarinic M2 receptor (Homo sapiens, UniProt P08172).
T2 sequence (P08172 1-466): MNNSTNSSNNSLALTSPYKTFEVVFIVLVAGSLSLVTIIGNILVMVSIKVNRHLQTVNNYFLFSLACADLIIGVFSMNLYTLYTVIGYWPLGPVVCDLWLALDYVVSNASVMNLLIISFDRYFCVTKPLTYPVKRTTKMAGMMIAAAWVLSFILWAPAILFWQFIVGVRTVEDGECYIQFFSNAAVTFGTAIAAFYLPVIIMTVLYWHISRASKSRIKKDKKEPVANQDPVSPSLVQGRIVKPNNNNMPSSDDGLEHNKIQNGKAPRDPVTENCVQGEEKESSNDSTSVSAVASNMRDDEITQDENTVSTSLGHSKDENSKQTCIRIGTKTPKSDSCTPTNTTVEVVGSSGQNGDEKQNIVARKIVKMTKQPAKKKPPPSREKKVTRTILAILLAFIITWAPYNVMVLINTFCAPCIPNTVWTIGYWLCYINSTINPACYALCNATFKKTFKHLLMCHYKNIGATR
Briefly: Alphascreen Surefire phospho-ERK1/2 functional assay, M2. The conditions noted are these: for EC50: CHO cells stably expressing human M2, phospho-ERK1/2, read-out: pEC50 M2 (converted); for Emax: CHO, read-out: M2 % Emax cf. ACh. The gist of the method:
as §1

Assay [3] deals with T3, human muscarinic M3 receptor (Homo sapiens, UniProt P20309).
T3 construct: expressed in transfected cells
Kind of assay: Alphascreen Surefire phospho-ERK1/2 functional assay, M3. Particulars: for EC50: CHO cells stably expressing human M3, phospho-ERK1/2, read-out: pEC50 M3 (converted); for Emax: CHO, read-out: M3 % Emax cf. ACh. The method, boiled down: as §1

Assay [4] has as its target T4, human muscarinic M4 receptor (Homo sapiens, UniProt P08173).
T4 construct: expressed in transfected cells
T4 sequence (P08173 1-479): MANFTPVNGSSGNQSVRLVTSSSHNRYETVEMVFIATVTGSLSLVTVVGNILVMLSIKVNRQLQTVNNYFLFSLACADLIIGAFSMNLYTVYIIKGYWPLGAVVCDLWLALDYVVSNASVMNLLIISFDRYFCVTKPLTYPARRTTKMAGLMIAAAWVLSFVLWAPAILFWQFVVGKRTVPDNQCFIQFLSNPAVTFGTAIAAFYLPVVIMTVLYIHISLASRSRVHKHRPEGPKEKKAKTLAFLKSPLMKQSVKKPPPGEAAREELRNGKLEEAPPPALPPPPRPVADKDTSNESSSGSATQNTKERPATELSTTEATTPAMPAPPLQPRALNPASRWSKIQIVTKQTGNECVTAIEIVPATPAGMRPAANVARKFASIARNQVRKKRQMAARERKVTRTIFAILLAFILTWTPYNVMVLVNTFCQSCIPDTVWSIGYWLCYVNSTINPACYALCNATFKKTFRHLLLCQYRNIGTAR
Kind of assay: Alphascreen Surefire phospho-ERK1/2 functional assay, M4. The conditions noted are these: for EC50: CHO cells stably expressing human M4, phospho-ERK1/2, read-out: pEC50 M4 (converted); for Emax: CHO, read-out: M4 % Emax cf. ACh, CHO cells stably expressing human M4, Emax relative to ACh. The method, boiled down: as §1
A general note: Alpha assays give light when donor and acceptor beads are brought close together.

T3 sequence (P20309 whole entry): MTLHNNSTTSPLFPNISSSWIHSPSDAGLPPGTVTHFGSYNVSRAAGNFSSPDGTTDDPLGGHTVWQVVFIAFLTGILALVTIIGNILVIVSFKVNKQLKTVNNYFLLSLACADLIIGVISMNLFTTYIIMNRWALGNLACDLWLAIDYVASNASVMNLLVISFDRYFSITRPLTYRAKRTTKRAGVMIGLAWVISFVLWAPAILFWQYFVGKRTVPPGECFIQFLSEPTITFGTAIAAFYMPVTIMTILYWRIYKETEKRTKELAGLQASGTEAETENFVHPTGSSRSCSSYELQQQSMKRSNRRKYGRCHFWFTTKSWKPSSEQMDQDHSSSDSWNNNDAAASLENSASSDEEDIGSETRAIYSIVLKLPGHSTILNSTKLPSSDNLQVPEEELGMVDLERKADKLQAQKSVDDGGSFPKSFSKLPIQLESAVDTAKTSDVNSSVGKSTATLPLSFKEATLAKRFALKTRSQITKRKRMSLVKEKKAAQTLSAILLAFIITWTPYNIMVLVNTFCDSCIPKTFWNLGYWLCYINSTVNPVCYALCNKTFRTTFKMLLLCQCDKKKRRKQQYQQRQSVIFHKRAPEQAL

As a reminder, the Emax is the size of the effect at its maximum, as opposed to the concentration needed. In the case of `CCOC(=O)N1CC2(CCN(C3CCC(C#N)(c4ccccc4)CC3)CC2)C1` (single isomer, unassigned) [11-1 Isomer 2], the EC50 in assay [1] is 275 nM; in assay [2], more than 20000 nM; in assay [3], more than 20000 nM; in assay [4], more than 20000 nM. Further, the Emax in assay [1] turned out to be 105%; in assay [2] it was 1%; in assay [3] it was 3%; in assay [4] it was 19%.
As to `CCOC(=O)N[C@H]1CCN(C2CCC3(CC2)C(=O)Nc2cccc(C)c23)C1` (single isomer, unassigned) [2-6 isomer 1], the EC50 is 186 nM in assay [1], more than 20000 nM in assay [2], more than 20000 nM in assay [3] and 60.3 nM in assay [4]. The maximum response (Emax) was determined as 66% in assay [1], 11% in assay [2], 16% in assay [3] and 54% in assay [4].
As for `CCOC(=O)N1CCCN(C2CCC(C#N)(c3ccncc3)CC2)CC1` (mixture of isomers) [3-12 mixture of isomers], the EC50 in assay [1] is 155 nM; in assay [2], more than 20000 nM; in assay [3], more than 20000 nM; in assay [4] it was 1070 nM. Further, the maximum response (Emax) in assay [1] is 116%; in assay [2] it was 5%; in assay [3] it was 3%; in assay [4] it was 48%.
In the case of `CCOC(=O)N1CCCN(C2CCC3(CC2)C(=O)Nc2cc(OC)ccc23)CC1` (single isomer, unassigned) [4-11 isomer 2], the EC50 in assay [1] is 132 nM; in assay [2] it was more than 20000 nM; in assay [3], more than 20000 nM; in assay [4], 309 nM. For the same molecule, the Emax is 107% in assay [1], 9% in assay [2], 2% in assay [3] and 55% in assay [4].
Turning to `CCOC(=O)N[C@H]1CCN(C2CCC3(CC2)C(=O)Nc2ccccc23)C1` (single isomer, unassigned) [2-1 isomer 1], the EC50 in assay [1] is 74.1 nM; in assay [2] it was more than 20000 nM; in assay [3], more than 20000 nM; in assay [4], more than 20000 nM. Moreover, the maximal effect (Emax) is 74% in assay [1], 2% in assay [2], 4% in assay [3] and 10% in assay [4].
Turning to `CCOC(=O)N1CCCN(C2CCC(c3nc(CC)c(C)[nH]3)CC2)CC1` (single isomer, unassigned) [5-1 Isomer 2], the EC50 is 66.1 nM in assay [1], more than 20000 nM in assay [2], more than 20000 nM in assay [3] and 513 nM in assay [4]. Moreover, the maximal effect (Emax) in assay [1] is 115%; in assay [2], 8%; in assay [3] it was 7%; in assay [4], 26%.
On to `CCOC(=O)N1CCCN(C2CCC(C#N)(c3ccc(C(F)(F)F)cn3)CC2)CC1` (mixture of isomers) [3-21 mixture of isomers], for which the EC50 was 724 nM in assay [1], more than 20000 nM in assay [2], more than 20000 nM in assay [3] and more than 20000 nM in assay [4]. Besides, the Emax was determined as 90% in assay [1], 3% in assay [2], 2% in assay [3] and 53% in assay [4].
In the case of `CCOC(=O)N1CCCN(C2CCC(C#N)(c3ccc(F)cc3)CC2)CC1` (mixture of isomers) [3-3 mixture of isomers], the EC50 in assay [1] was 9.77 nM; in assay [2], more than 20000 nM; in assay [3], more than 20000 nM; in assay [4], 63.1 nM. The Emax worked out at 101% in assay [1], 38% in assay [2], 35% in assay [3] and 85% in assay [4].
`CCOC(=O)N1CCCN(C2CCC(C#N)(c3cccc(C)c3)CC2)CC1` (mixture of isomers) [3-8 mixture of isomers]: the EC50 in assay [1] was 35.5 nM; in assay [2], more than 20000 nM; in assay [3], more than 20000 nM; in assay [4] it was 105 nM. In addition, the maximal effect (Emax) in assay [1] is 106%; in assay [2], 18%; in assay [3], 7%; in assay [4], 62%.
Consider `CCOC(=O)N1CCC2CN(C3CCC(C#N)(c4ccccc4)CC3)CC21` (single isomer, unassigned) [15-1 Isomer 2], for which the EC50 was 155 nM in assay [1], more than 20000 nM in assay [2], more than 20000 nM in assay [3] and 145 nM in assay [4]. Further, the Emax in assay [1] amounted to 117%; in assay [2], 14%; in assay [3], 6%; in assay [4] it was 21%.
Turning to `CCOC(=O)N1CCCN(C2CCC(C#N)(c3ccccc3Cl)CC2)CC1` (mixture of isomers) [3-4 mixture of isomers], the EC50 in assay [1] is 295 nM; in assay [2], more than 20000 nM; in assay [3], more than 20000 nM; in assay [4], 832 nM. The Emax in assay [1] came out at 86%; in assay [2], 12%; in assay [3], 40%; in assay [4], 46%.
Take `CCOC(=O)N1CCCN(C2CCC(C#N)(c3ccc(Br)cn3)CC2)CC1` (single isomer, unassigned) [3-17 Isomer 1]: the EC50 in assay [1] was 3.02 nM; in assay [2] it was more than 20000 nM; in assay [3] it was more than 20000 nM; in assay [4], 72.4 nM. For the same molecule, the maximal response (Emax) in assay [1] was determined as 92%; in assay [2] it was 0%; in assay [3] it was 0%; in assay [4] it was 80%.
With `CCOC(=O)N1CCCN(C2CCC(C#N)(c3ccccn3)CC2)CC1` (mixture of isomers) [3-11 mixture of isomers], the EC50 in assay [1] is 72.4 nM; in assay [2], more than 20000 nM; in assay [3] it was more than 20000 nM; in assay [4], 389 nM. In addition, the maximum response (Emax) was 97% in assay [1], 43% in assay [2], 15% in assay [3] and 99% in assay [4].
With `COc1ccc2c(c1)C1(CCC(N3CCC[C@@H](c4nc(C)no4)C3)CC1)C(=O)N2` (single isomer, unassigned) [22-2 Isomer 1], the EC50 in assay [1] was 70.8 nM; in assay [2], more than 20000 nM; in assay [3], more than 20000 nM; in assay [4], 537 nM. Moreover, the Emax turned out to be 55% in assay [1], 12% in assay [2], 21% in assay [3] and 42% in assay [4].
With `CC#CCOC(=O)N1CCCN(C2CCC(C#N)(c3ccncc3)CC2)CC1` (single isomer, unassigned) [3-30 Isomer 1], the EC50 in assay [1] was 295 nM; in assay [2], more than 20000 nM; in assay [3], more than 20000 nM; in assay [4] it was 229 nM. The Emax was 104% in assay [1], 6% in assay [2], 0% in assay [3] and 72% in assay [4].
Regarding `CCOC(=O)N1CC2CN(C3CCC(C#N)(c4ccccc4)CC3)CCC21` (single isomer, unassigned) [17-1 Isomer 2], the EC50 in assay [1] is 97.7 nM; in assay [2], more than 20000 nM; in assay [3], more than 20000 nM; in assay [4], 251 nM. For the same molecule, the Emax is 111% in assay [1], 9% in assay [2], 9% in assay [3] and 61% in assay [4].
